Measured values published in ChEMBL document CHEMBL1201862, “PubChem BioAssay data set” (2004).
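Cultured in 96-well plates, cells were exposed to test compound for 48 hours across five concentrations. Here, GI50 denotes the concentration required for 50% inhibition of growth.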 Active and inactive are the calls of the source. Cut-off read from the data, not from the text of the source: active = GI50 up to about 1.1 µM and inactive = higher.

Key:
Assay in all cases: DTP human tumour cell line panel, 48 h
786-0 = system: 786-0
A498 = system: A498
A549 = system: A549
ACHN = system: ACHN
BT-549 = system: BT-549
CAKI-1 = system: CAKI-1
CCRF-CEM = system: CCRF-CEM
COLO 205 = system: COLO 205
DU-145 = system: DU-145
EKVX = system: EKVX
HCT-116 = system: HCT-116
HCT-15 = system: HCT-15
HL-60 = system: HL-60
HOP-62 = system: HOP-62
HOP-92 = system: HOP-92
HT-29 = system: HT-29
Hs-578T = system: Hs-578T
IGROV-1 = system: IGROV-1
K562 = system: K562
KM12 = system: KM12
LOX IMVI = system: LOX IMVI
M14 = system: M14
MCF7 = system: MCF7
MDA-MB-231 = system: MDA-MB-231
MDA-MB-435 = system: MDA-MB-435
MDA-N = system: MDA-N
MOLT-4 = system: MOLT-4
Malme-3M = system: Malme-3M
NCI-H226 = system: NCI-H226
NCI-H23 = system: NCI-H23
NCI-H460 = system: NCI-H460
NCI-H522 = system: NCI-H522
NCI/ADR-RES = system: NCI/ADR-RES
OVCAR-3 = system: OVCAR-3
OVCAR-4 = system: OVCAR-4
OVCAR-5 = system: OVCAR-5
OVCAR-8 = system: OVCAR-8
PC-3 = system: PC-3
RPMI-8226 = system: RPMI-8226
RXF 393 = system: RXF 393
SF-268 = system: SF-268
SF-295 = system: SF-295
SF-539 = system: SF-539
SK-MEL-28 = system: SK-MEL-28
SK-MEL-2 = system: SK-MEL-2
SK-MEL-5 = system: SK-MEL-5
SK-OV-3 = system: SK-OV-3
SN12C = system: SN12C
SNB-19 = system: SNB-19
SNB-75 = system: SNB-75
SR = system: SR
SW-620 = system: SW-620
T47D = system: T47D
TK-10 = system: TK-10
U-251 = system: U-251
UACC-257 = system: UACC-257
UACC-62 = system: UACC-62
UO-31 = system: UO-31
HCC 2998 = system: HCC 2998

## CC/N=C(\N)CSS(=O)(=O)O
786-0
  GI50: > 100 µM (inactive)
A498
  GI50: > 100 µM (inactive)
A549
  GI50: > 100 µM (inactive)
ACHN
  GI50: > 100 µM (inactive)
BT-549
  GI50: > 100 µM (inactive)
CAKI-1
  GI50: > 100 µM (inactive)
CCRF-CEM
  GI50: > 100 µM (inactive)
COLO 205
  GI50: > 100 µM (inactive)
DU-145
  GI50: > 100 µM (inactive)
EKVX
  GI50: > 100 µM (inactive)
HCT-116
  GI50: > 100 µM (inactive)
HCT-15
  GI50: > 100 µM
HL-60
  GI50: > 100 µM (inactive)
HOP-62
  GI50: > 100 µM (inactive)
HOP-92
  GI50: > 100 µM (inactive)
HT-29
  GI50: > 100 µM (inactive)
Hs-578T
  GI50: > 100 µM (inactive)
IGROV-1
  GI50: > 100 µM (inactive)
K562
  GI50: > 100 µM (inactive)
KM12
  GI50: > 100 µM (inactive)
LOX IMVI
  GI50: 38.3 µM (inactive)
M14
  GI50: > 100 µM (inactive)
MCF7
  GI50: > 100 µM (inactive)
MDA-MB-231
  GI50: > 100 µM (inactive)
MDA-MB-435
  GI50: > 100 µM (inactive)
MDA-N
  GI50: > 100 µM (inactive)
MOLT-4
  GI50: 34.6 µM (inactive)
Malme-3M
  GI50: > 100 µM (inactive)
NCI-H226
  GI50: > 100 µM (inactive)
NCI-H23
  GI50: > 100 µM (inactive)
NCI-H460
  GI50: 77.3 µM (inactive)
NCI-H522
  GI50: > 100 µM (inactive)
NCI/ADR-RES
  GI50: > 100 µM (inactive)
OVCAR-3
  GI50: > 100 µM (inactive)
OVCAR-4
  GI50: > 100 µM (inactive)
OVCAR-5
  GI50: > 100 µM (inactive)
OVCAR-8
  GI50: > 100 µM (inactive)
PC-3
  GI50: > 100 µM (inactive)
RPMI-8226
  GI50: > 100 µM (inactive)
RXF 393
  GI50: > 100 µM (inactive)
SF-268
  GI50: > 100 µM (inactive)
SF-295
  GI50: > 100 µM (inactive)
SF-539
  GI50: > 100 µM (inactive)
SK-MEL-28
  GI50: > 100 µM (inactive)
SK-MEL-2
  GI50: > 100 µM (inactive)
SK-MEL-5
  GI50: > 100 µM (inactive)
SK-OV-3
  GI50: > 100 µM (inactive)
SN12C
  GI50: > 100 µM (inactive)
SNB-19
  GI50: > 100 µM (inactive)
SNB-75
  GI50: > 100 µM (inactive)
SR
  GI50: 36.5 µM (inactive)
SW-620
  GI50: > 100 µM (inactive)
T47D
  GI50: > 100 µM (inactive)
TK-10
  GI50: > 100 µM (inactive)
U-251
  GI50: 71.1 µM (inactive)
UACC-257
  GI50: > 100 µM (inactive)
UACC-62
  GI50: > 100 µM (inactive)

## COc1ccc(/C=C/c2cnc3ccccc3n2)cc1OC
786-0
  GI50: 53.6 µM (inactive)
A498
  GI50: 45.7 µM (inactive)
A549
  GI50: 42.6 µM (inactive)
ACHN
  GI50: > 100 µM (inactive)
BT-549
  GI50: 57.1 µM (inactive)
CAKI-1
  GI50: 74.3 µM (inactive)
CCRF-CEM
  GI50: > 100 µM (inactive)
COLO 205
  GI50: 72.1 µM (inactive)
DU-145
  GI50: > 100 µM (inactive)
EKVX
  GI50: 63.1 µM (inactive)
HCT-116
  GI50: 47.2 µM (inactive)
HCT-15
  GI50: 37 µM
HL-60
  GI50: 47.2 µM (inactive)
HOP-62
  GI50: 68.1 µM (inactive)
HOP-92
  GI50: 94.8 µM (inactive)
HT-29
  GI50: 36.1 µM (inactive)
Hs-578T
  GI50: 89.3 µM (inactive)
IGROV-1
  GI50: > 100 µM (inactive)
K562
  GI50: 44.5 µM (inactive)
KM12
  GI50: 47.8 µM (inactive)
LOX IMVI
  GI50: 83.8 µM (inactive)
M14
  GI50: 75.7 µM (inactive)
MCF7
  GI50: 54.5 µM (inactive)
MDA-MB-231
  GI50: 99.8 µM (inactive)
MDA-MB-435
  GI50: 44.1 µM (inactive)
MDA-N
  GI50: 59 µM (inactive)
MOLT-4
  GI50: > 100 µM (inactive)
Malme-3M
  GI50: 38.2 µM (inactive)
NCI-H226
  GI50: > 100 µM (inactive)
NCI-H23
  GI50: 67.8 µM (inactive)
NCI-H460
  GI50: 30.3 µM (inactive)
NCI-H522
  GI50: 24.1 µM (inactive)
NCI/ADR-RES
  GI50: 38.2 µM (inactive)
OVCAR-3
  GI50: 93.1 µM (inactive)
OVCAR-4
  GI50: 34.8 µM (inactive)
OVCAR-5
  GI50: > 100 µM (inactive)
OVCAR-8
  GI50: 41.7 µM (inactive)
PC-3
  GI50: 33.1 µM (inactive)
RPMI-8226
  GI50: 71.6 µM (inactive)
RXF 393
  GI50: > 100 µM (inactive)
SF-268
  GI50: > 100 µM (inactive)
SF-295
  GI50: 52.8 µM (inactive)
SF-539
  GI50: > 100 µM (inactive)
SK-MEL-28
  GI50: 92.3 µM (inactive)
SK-MEL-2
  GI50: 92.7 µM (inactive)
SK-MEL-5
  GI50: 49.3 µM (inactive)
SK-OV-3
  GI50: 75.7 µM (inactive)
SN12C
  GI50: 52.7 µM (inactive)
SNB-75
  GI50: 63.8 µM (inactive)
SR
  GI50: > 100 µM (inactive)
SW-620
  GI50: > 100 µM (inactive)
T47D
  GI50: 31 µM (inactive)
TK-10
  GI50: > 100 µM (inactive)
U-251
  GI50: 80.2 µM (inactive)
UACC-257
  GI50: > 100 µM (inactive)
UACC-62
  GI50: 77.3 µM (inactive)
UO-31
  GI50: 34.7 µM (inactive)

## COc1ccc(-n2c(C)nc3ccc(NC4OC(COC(C)=O)C(OC(C)=O)C(OC(C)=O)C4OC(C)=O)cc3c2=O)cc1 (configuration not stated)
786-0
  GI50: 24.8 µM (inactive)
A498
  GI50: > 100 µM (inactive)
ACHN
  GI50: > 100 µM (inactive)
BT-549
  GI50: > 100 µM (inactive)
CAKI-1
  GI50: 19.7 µM (inactive)
COLO 205
  GI50: 18.6 µM (inactive)
DU-145
  GI50: > 100 µM (inactive)
EKVX
  GI50: > 100 µM (inactive)
HCC 2998
  GI50: > 100 µM (inactive)
HCT-116
  GI50: 21.8 µM (inactive)
HCT-15
  GI50: 76 µM
HL-60
  GI50: 20.3 µM (inactive)
HOP-62
  GI50: > 100 µM (inactive)
HT-29
  GI50: 53.3 µM (inactive)
Hs-578T
  GI50: 49.8 µM (inactive)
IGROV-1
  GI50: > 100 µM (inactive)
K562
  GI50: 36.7 µM (inactive)
KM12
  GI50: > 100 µM (inactive)
LOX IMVI
  GI50: 28.5 µM (inactive)
MCF7
  GI50: 45.9 µM (inactive)
MDA-MB-231
  GI50: > 100 µM (inactive)
MDA-MB-435
  GI50: > 100 µM (inactive)
MDA-N
  GI50: 83.4 µM (inactive)
MOLT-4
  GI50: 27.4 µM (inactive)
Malme-3M
  GI50: 69.3 µM (inactive)
NCI-H226
  GI50: 32.7 µM (inactive)
NCI-H23
  GI50: 60.4 µM (inactive)
NCI-H460
  GI50: > 100 µM (inactive)
NCI-H522
  GI50: 21.8 µM (inactive)
NCI/ADR-RES
  GI50: > 100 µM (inactive)
OVCAR-3
  GI50: > 100 µM (inactive)
OVCAR-4
  GI50: > 100 µM (inactive)
OVCAR-5
  GI50: > 100 µM (inactive)
OVCAR-8
  GI50: 32.9 µM (inactive)
PC-3
  GI50: > 100 µM (inactive)
RPMI-8226
  GI50: 27.1 µM (inactive)
RXF 393
  GI50: 27.8 µM (inactive)
SF-268
  GI50: > 100 µM (inactive)
SF-295
  GI50: > 100 µM (inactive)
SK-MEL-28
  GI50: 34 µM (inactive)
SK-MEL-2
  GI50: > 100 µM (inactive)
SK-MEL-5
  GI50: > 100 µM (inactive)
SN12C
  GI50: 32 µM (inactive)
SNB-19
  GI50: > 100 µM (inactive)
SNB-75
  GI50: > 100 µM (inactive)
SR
  GI50: 73.3 µM (inactive)
SW-620
  GI50: 39.1 µM (inactive)
T47D
  GI50: > 100 µM (inactive)
TK-10
  GI50: 55.1 µM (inactive)
U-251
  GI50: > 100 µM (inactive)
UACC-257
  GI50: > 100 µM (inactive)
UACC-62
  GI50: 67 µM (inactive)
UO-31
  GI50: > 100 µM (inactive)
